# Entries after “also recorded” stand apart in the source; their conditions may differ. Read-outs that look alike come from different tables or passages of the source.
# Legend:
# SARS-CoV-2 [1] = test: Time-of-addition experiment, CoV2 in Vero E6 cells; type: cell-based
# SARS-CoV-2 [2] = test: SARS-CoV-2 infection of human airway epithelia (HAE); type: cell-based; settings: 10 μM; for viral RNA by RT-qPCR: wild type CoV2 MOI 0.01, 4 days
# Experimental: (§1) FIG. 33 HAE cells were either untreated (Mock) or treated with 10 μM of RG10 and then infected with SARS-CoV-2 mNeonGreen virus at MOI 0.1. After 4 days, cells were fixed and stained for CoV2 spike protein and actin filaments (phalloidin staining). Z-stack images were acquired using a confocal microscope and processed using ImageJ to produce an average intensity image for each individual channel. Scale bar=20 μm.
# as §1, with “34” for “33”
# FIG. 35 3D representation of the images from [FIG. 33] and [FIG. 34] using the Imaris software. Scale bar=20 μm.
# FIG. 37 Same samples from [FIG. 36] were processed to measure by RT-qPCR, relative vRNA levels normalized by Rpl27 RNA expression. The bars are means+/−SD from two pooled independent experiments. Student's t-test **p value<0.01; ***p value<0.005; ****p value<0.001.
# FIG. 42 HAE cells were treated with 10 μM of RG10, RG10b, and Remdesivir and then infected for 4 days with CoV2 at MOI 0.01. Cells were then processed for RNA extraction and RT-qPCR experiments. […] Student's t-test *p value<0.05 **p value<0.01; ***p value<0.005.
# Huh7.5.1 (Zhong J. et al. (2005) Proceedings of the National Academy of Sciences of the United States of America 102:9294-9), Vero E6 (ECACC #85020206), Caco2, and HEK 293T cells were cultured in DMEM GlutaMAX (Thermo Fisher Scientific) supplemented with 10% fetal calf serum and penicillin-streptomycin (500 μg/ml; GIBCO). HAE cells (Epithelix) were cultured in Mucilair media at the basal side and maintained at air-liquid interface. Apical washes were performed each 2-3 days by temporarily adding Mucilair media for 30 minutes. All cell types were maintained at 37° C. in a 5% CO2 atmosphere.
# Cells were lysed and RNA immediately extracted using the Luna Cell Ready Lysis Module according to the manufacturer's protocol (New England Biolabs). RT-qPCR on extracted RNA was performed using the Luna One-Step RT-qPCR Kit (New England Biolabs). The samples were analyzed using a Lightcycler 480 instrument (Roche) using the following thermal cycle: Reverse transcription step at 55° C. for 15 min, initial denaturation at 95° C. for 2 min. Then, 40 cycles were programmed consisting of 15 s of denaturation at 95° C. followed by 30 s of annealing/extension at 55°. Fluorescent data collection was performed at the end of each cycle. SARS-CoV-2 viral RNA was detected using the N1 probe that targets specifically the N protein. […]
# N-mRuby3 CoV2 = test: Live cell imaging and tracking of N-mRuby3 CoV2 particles in Huh7.5.1 cells; type: cell-based, SARS-CoV-2
# [3] = Cytotoxicity, LDH release assay; type: cell-based
# ZIKV = type: cell-based, Zika virus; settings: MOI 0.3, 24 h
# endoplasmic reticulum = test: Confocal imaging of ER morphology and compound localization in Huh7.5.1 cells; type: cell-based, human; settings: 50 μM, 6 h, Calnexin staining
# Experimental: FIG. 15 Huh7.5.1 cells were treated with 25 µM of RG10-Rhod or free Rhodamine for 3 h. Cells were fixed and stained using an anti-Calnexin antibody as a marker for ER membranes and DAPI for nuclear staining. One channel corresponds to rhodamine fluorescence. The micrographs show the individual channels and merge that have been acquired using confocal microscopy and processed using ImageJ. Scale bar=10 μm.
# FIG. 17 Huh.7.5.1 cells were treated with 50 μM of RG10 for 6 h and then were processed for confocal imaging.
# Cells were then fixed and stained using an anti-Calnexin antibody as a marker for ER membranes and DAPI for nuclear staining. The micrographs show the individual channels and merge that have been acquired using confocal microscopy and processed using ImageJ. Scale bar=10 μm.
# Cells grown on #1.5 glass coverslips were fixed with 4% PFA for 15 min. Cells were then permeabilized with 0.1% Triton X100 and saturated with 0.2% BSA. Then, primary antibody incubation was performed for 1 h. After a series of PBS washes, secondary antibodies were added for 30 min. DAPI staining was performed for 10 min to obtain nuclear staining. Coverslips were mounted on glass slides using Mowiol mounting media. Images were acquired using a Leica SP5 confocal microscope.
# SARS-CoV-2 [4] = type: cell-based; settings: Caco2 cells, 10 μM, MOI 0.01, 48 h
# sXBP1 = sXBP1 RNA levels in HAE cells infected with CoV2; type: cell-based, human; settings: 10 μM, CoV2 MOI 0.01, 4 days
# Experimental: FIG. 36 HAE cells were treated with 10 μM of RG10 and Remdesivir and then infected with wild type CoV2 at MOI 0.01 for 4 days. Graphs show relative sXBP1 RNA levels normalized with GAPDH RNA expression.
# Cells were lysed and RNA immediately extracted using the Luna Cell Ready Lysis Module according to the manufacturer's protocol (New England Biolabs). RT-qPCR on extracted RNA was performed using the Luna One-Step RT-qPCR Kit (New England Biolabs). The samples were analyzed using a Lightcycler 480 instrument (Roche) using the following thermal cycle: Reverse transcription step at 55° C. for 15 min, initial denaturation at 95° C. for 2 min. Then, 40 cycles were programmed consisting of 15 s of denaturation at 95° C. followed by 30 s of annealing/extension at 55°. Fluorescent data collection was performed at the end of each cycle. SARS-CoV-2 viral RNA was detected using the N1 probe that targets specifically the N protein. For normalization, primers targeting Rpl27 or GAPDH were utilized.
# SARS-CoV-2 [5] = test: microbe, parasite or virus in culture; type: cell-based; settings: for IC50: SARS-CoV-2 MOI 0.01, 48 h, vRNA RT-qPCR; for antiviral activity (relative SARS-CoV-2 vRNA levels): MOI 0.01, 48 h, indicated concentrations
# sXBP-1 = test: ER stress mediator RNA levels by RT-qPCR in Huh7.5.1 cells; type: cell-based, human
# HCoV-229E-Renilla = type: cell-based, human coronavirus 229E
# SARS-CoV-2 [6] = test: microbe, parasite or virus in culture; type: cell-based
# Vero E6 cells = settings: cited from earlier work
# [7] = infected non-human primates; cited from earlier work
# [8] = Innocuity assessment in mice (weight); type: in vivo; settings: concentrations up to 10 mg/kg
# Excerpt: Two mice were used per condition.
# (§2) The low potency of RG10 in HAE could be attributed to its weak stability and therefore, the inventor designed a novel RG10 derivative, which the inventor called RG10b. This derivative harbors a modification shielding a molecular weakness present in RG10.
# [9] = Pharmacokinetics experiments in mice; type: in vivo; settings: blood
# Excerpt: as §2
# [10] = Severe acute respiratory syndrome coronavirus 2, Vero C1008, Vero E6 cells
# [11] = Huh 7.5.1 cells, 10 μM, MOI 0.01, 48 h
# [12] = Huh7.5.1 cells, 10 μM, MOI 0.5, 48 h
# [13] = Huh 7.5.1 cells, 25 μM, MOI 0.01, 48 h
compound,measurement,setting,value
COc1ccc(OCCNC(=S)Nc2ccc(S(=O)(=O)NC3CCCCC3)cc2)cc1 [RG10],"antiviral activity, vRNA levels, RG10 Pre","SARS-CoV-2 [1]; Vero E6, MOI 0.1, 10 μM during the first 4 h of infection and washed-out",no antiviral activity when incubated only during virus entry
same,"vRNA expression levels, RG10 Post","SARS-CoV-2 [1]; Vero E6, MOI 0.1, 10 μM starting at 4 h post-infection",significantly decreased vRNA expression levels
same,"viral N protein and dsRNA levels by flow cytometry, entry steps","SARS-CoV-2 [1]; Vero E6, MOI 0.1, 10 μM, 24 h",some inhibition was also observed at the entry steps
same,"viral N protein and dsRNA levels by flow cytometry, post entry","SARS-CoV-2 [1]; Vero E6, MOI 0.1, 10 μM, 24 h",strong antiviral activity post entry
same,HAE viability,SARS-CoV-2 [2]; 4 days,viability was similar
same,"viral infection, fluorescent mNeonGreen virus","SARS-CoV-2 [2]; MOI 0.1, 4 days",decreases viral infection
same,viral RNA by RT-qPCR,SARS-CoV-2 [2],"decreased by RG10, although the extent of the decrease was much lower than Remdesivir treatment"
same,mean particle speed of virus,N-mRuby3 CoV2,slowed down virus movement to the ER
same,cytotoxicity,[3],did not show cytotoxicity at working concentrations
same,cytotoxicity,"[3]; LDH release, working concentrations","very low cytotoxicity compared to Latrunculin, jasplakinolide and cytocalasin D"
same,antiviral activity against ZIKV (relative vRNA levels),"ZIKV; Vero E6, 10 μM",no detectable effect on ZIKV; also recorded: unable to inhibit ZIKV replication
same,ER morphology,endoplasmic reticulum,perturbed ER morphology
same,CoV2 antiviral activity (relative vRNA levels),SARS-CoV-2 [4],high CoV2 antiviral activity
same,sXBP-1 RNA levels,sXBP1,upregulated
same,IC50,SARS-CoV-2 [5]; [10],1550 nM
same,antiviral activity (relative SARS-CoV-2 vRNA levels),SARS-CoV-2 [5]; Vero E6 cells,potent antiviral molecule with similar activity levels as Remdesivir; also recorded: high CoV2 antiviral activity
same,sXBP-1 RNA levels,sXBP-1; 10 μM,no difference was observed between RG10 and RG7
same,sXBP-1 RNA levels,"sXBP-1; 50 μM, 6 h",enriched
same,antiviral activity against HCoV-229E,HCoV-229E-Renilla,"significant antiviral activity, although potency was lower"
same,CoV2 antiviral activity (relative vRNA levels),SARS-CoV-2 [6]; [11],high CoV2 antiviral activity
same,"neosynthesized Spike protein, Western blot",SARS-CoV-2 [6]; [12],could barely be detected
same,"viral RNA synthesis, dsRNA immunolabeling",SARS-CoV-2 [6]; [12],prevents viral RNA synthesis
same,"viral protein synthesis, microscopy and flow cytometry",SARS-CoV-2 [6]; [12],prevent viral protein synthesis
same,potency at high multiplicity of infection,"SARS-CoV-2 [6]; Huh7.5.1 cells, 10 μM, indicated MOI, 48 h",retained potency at high multiplicity of infection (MOI) similar to Rem
same,EC50,"SARS-CoV-2 [6]; Severe acute respiratory syndrome coronavirus 2, Huh-7.5.1, potency in Huh7.5.1 cells (FIG. 3)",~1500 nM
COc1ccc(N2CCCC(NC(=S)Nc3ccc(S(=O)(=O)NC4CCCCC4)cc3)C2)cc1 (stereo not drawn) [RG27-8],antiviral activity (relative SARS-CoV-2 vRNA levels),SARS-CoV-2 [6]; [11],cannot be observed
same,antiviral activity (relative SARS-CoV-2 vRNA levels),SARS-CoV-2 [6]; [13],harbor also an antiviral activity
CCN(CCO)CCCC(C)Nc1ccnc2cc(Cl)ccc12 (stereo not drawn) [Hydroxychloroquine],EC50,Vero E6 cells; Vero E6 cells,~2000 nM
same,viral loads,[7],does not decrease the viral loads
COc1ccc(N2CCC(NC(=S)Nc3ccc(S(=O)(=O)NC4CCCCC4)cc3)C2)cc1 (stereo not drawn) [RG10b],innocuity / toxicity in mice,[8],well supported by mice at concentrations up to 10 mg/kg; also recorded: no toxicity observed
same,viral RNA by RT-qPCR,SARS-CoV-2 [2],"more potent than RG10, showing antiviral activity similar to Remdesivir"
same,EC50,"SARS-CoV-2 [5]; Severe acute respiratory syndrome coronavirus 2, Vero C1008, Vero E6 cells, CoV2 48 h (FIGS. 38 and 39)",< 1000 nM
same,IC50,SARS-CoV-2 [5]; [10],~990 nM
same,antiviral activity (relative SARS-CoV-2 vRNA levels),SARS-CoV-2 [5]; Vero E6 cells,more potent than RG10
same,half-life relative to RG10,[9],more than 3 fold
same,half-life,"[9]; mouse, read-out: pharmacokinetic half-life / stability in vivo",> 2 h
NC(=O)c1nc(F)c[nH]c1=O [favipiravir],potency in vitro,Vero E6 cells; in vitro,very low potency in vitro
Tunicamycin [reference compound],antiviral activity against ZIKV (relative vRNA levels),"ZIKV; Vero E6, 1 μM",active against both viruses
same,antiviral activity against CoV2 (relative vRNA levels),SARS-CoV-2 [5],active against both viruses
COc1ccc(N2CCC(NC(=S)Nc3ccc(S(=N)(=O)NC4CCCCC4)cc3)C2)cc1 (stereo not drawn) [RG27-1],antiviral activity (relative SARS-CoV-2 vRNA levels),SARS-CoV-2 [6]; [11],cannot be observed
same,antiviral activity (relative SARS-CoV-2 vRNA levels),SARS-CoV-2 [6]; [13],harbor also an antiviral activity
"O[C@@H](CS)[C@@H](O)CS [DTT, reference compound]",sXBP-1 RNA levels,"sXBP-1; 1 mM, 6 h, positive control of ER stress",enriched

# — patent US20240391872A1, “PHENOXY-ACETYL-THIOUREIDO-BENZENESULFONAMIDE DERIVATIVES, AND THEIR USES” (priority 2021, published 2024)
